The values below come from US8440417B2, “Method for assaying compounds or agents for ability to displace potent ligands of hematopoietic prostaglandin D synthase” (Cayman Chemical Company, Incorporated, priority 2008, dated 2013).

Read-outs that look alike come from different tables or passages of the source.

Assay [1] has as its target T1, H-PGDS (Homo sapiens, UniProt O60760). The note with it: order of magnitude in words; cited from earlier work.
The target in a further assay is MBP-H-PGDS fusion enzyme (Homo sapiens, UniProt O60760). Kind of assay: MBP-H-PGDS fluorescence polarization (FP) displacement assay. Format: binding. As to conditions: detection analyte Compound 20; mean ± spread, N in cell; read-out: MBP-H-PGDS FP Assay: test compound IC50. The method, then: Detection analyte and H-PGDS-MBP fusion enzyme were incubated in the presence of reduced glutathione (5 mM) for 30-60 minutes at room temperature and FP was measured using a TECAN SAFIRE 2 plate reader equipped with absorbance, fluorescence, fluorescence polarization and FRET capabilities. Assays were performed in 96-well microtiter plates in 100 μL of total sample volume. Excitation and emission wavelengths appropriate for the employed detection analyte were used.
Chain of MBP-H-PGDS fusion enzyme (O60760 2-199, looked up): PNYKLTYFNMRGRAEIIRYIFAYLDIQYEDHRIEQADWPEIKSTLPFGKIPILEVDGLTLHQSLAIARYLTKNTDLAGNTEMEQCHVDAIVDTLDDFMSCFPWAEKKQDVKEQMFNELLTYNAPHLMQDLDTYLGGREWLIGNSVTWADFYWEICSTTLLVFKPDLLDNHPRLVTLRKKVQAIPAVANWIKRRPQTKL
H-PGDS-Maltose binding protein (MBP; 100 μl, 0.5 mg/ml) fusion (MBP-H-PGDS fusion) (FIG. 6) was diluted with 1×FP buffer (900 μL).
Into a 50 mL conical tube was added the H-PGDS 1×FP buffer (18.65 mL), H-PGDS FP fluorescent probe—green (138 μL), MBP-H-PGDS fusion dilution (880 μL), and glutathione solution (1,250 μL).
Assay cocktail (47.5 μL) was added to each plate well.
Test compound solutions (2.5 μL) were added to the wells. […] The IC50 for a particular test compound was obtained by performing a full concentration titration versus a full concentration titration of positive control. Comparison of a single concentration of a test compound to the maximum binding well provided an assessment of the relative affinity of the test compound for MBP-H-PGDS.
The plate was covered and incubated for 60-90 minutes at room temperature. The FP signal is stable for at least two hours.
Plates were read with excitation and emission wavelengths of 470 nm and 530 nm (for detection analyte comprising the fluorescein fluorophore), respectively.
fluorescence polarization of a molecule is defined as: Polarization (mP)=1,000×(Iparallel−Iperpendicular)/(Iparallel+Iperpendicular) where Iparallel is the parallel emission intensity measurement and Iperpendicular is the perpendicular emission intensity measurement.
The clone was then transformed into the expression strain BL21 (DE3) star cells and a glycerol stock was generated. The expected size is 66.29 kDa.
On the technique in general: In fluorescence polarisation assays a small probe gives low polarisation when free and higher when bound to something large.

Assay [2] has as its target T1, H-PGDS. The note with it: Taiho poster / patent application, method not stated; read-out: Reported H-PGDS inhibition IC50; cited from earlier work.
Assay [3] concerns the target T1, H-PGDS. The note with it: GSH-MCB conjugation, fluorometry; Evotec WO 2008/122787, AstraZeneca J. Med. Chem. 2008; read-out: Reported H-PGDS inhibition IC50; cited from earlier work.
The target in assay [4] is T1, H-PGDS. The note with it: [1-14C]PGH2 to [1-14C]PGD2, RIA; Aritake et al. 2006; read-out: Reported H-PGDS inhibition IC50; cited from earlier work.
Assay [5] relates to PGD2 levels in guinea pig lung tissues. The note with it: chronic treatment; Matsushita et al. 1998; cited from earlier work.

T1 sequence (O60760 whole entry, species assumed, the tested form may be a part): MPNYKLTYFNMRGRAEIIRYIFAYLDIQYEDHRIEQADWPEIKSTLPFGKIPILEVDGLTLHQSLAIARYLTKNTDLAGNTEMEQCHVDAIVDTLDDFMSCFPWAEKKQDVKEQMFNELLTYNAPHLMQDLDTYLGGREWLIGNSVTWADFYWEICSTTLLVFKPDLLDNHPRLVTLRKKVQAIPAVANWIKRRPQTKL

Consider `COc1ccc(/C=C/C(=O)Nc2ccccc2C(=O)O)cc1OC` [Tranilast], for which the “IC50 against H-PGDS in known in vitro assays” value on H-PGDS [1] is “micromolar”. For `O=C(c1cnc(-c2ccccc2)nc1)N1CCNCC1` [(2-phenylpyrimidin-5-yl)(piperazin-1-yl)methanone], the 50% inhibitory concentration (IC50) at MBP-H-PGDS fusion enzyme came out at 250 µM.

As to `NCCNS(=O)(=O)c1cccc(CNC(=O)c2cnc(-c3ccccc3)nc2)c1` [Compound 19, N-(3-(N-(2-aminoethyl)sulfamoyl)benzyl)-2-phenylpyrimidine-5-carboxamide], at MBP-H-PGDS fusion enzyme, the half-inhibitory concentration (IC50) lay in the range of 0.2 to 0.3 µM. For the compound `Cc1nc(-c2cccc(F)c2)sc1C(=O)NCc1ccccc1` [N-benzyl-2-(3-fluorophenyl)-4-methylthiazole-5-carboxamide], at MBP-H-PGDS fusion enzyme, the 50% inhibitory concentration (IC50) is 0.9 ± 0.14 µM. For `O=C(NC1CCN(Cc2ccccc2)CC1)c1ccc(-c2ccccc2)nc1`, the 50% inhibitory concentration (IC50) on MBP-H-PGDS fusion enzyme was 0.03 µM. On the same count and under the same terms, to `O=C(NC1CCN(Cc2ccccc2)CC1)c1cnc(-c2ccccc2)nc1` belongs 0.05 ± 0.014 µM; to `O=C(NCc1ccccc1)c1cnc(-c2ccccc2)nc1`, 0.125 µM. For the compound `Cc1[nH]c(C(=O)CCCc2ccccn2)c(C)c1-c1nc2cc(C(=O)c3ccccc3)ccc2[nH]1`, the half-maximal inhibitory concentration (IC50) on H-PGDS [2] is 0.072 µM; at MBP-H-PGDS fusion enzyme it was 0.025 ± 0.007 µM.

For `COc1ccc(CNC(=O)c2ccc(-c3ccccc3)nc2)cc1OC` [N-(3,4-dimethoxybenzyl)-6-phenylnicotinamide], the 50% inhibitory concentration (IC50) on MBP-H-PGDS fusion enzyme was determined as 0.575 ± 0.46 µM. On to `Cc1ccc2nc(NC(=O)N3CCN(C(=O)c4cccc(F)c4)CC3)sc2c1`, for which the figures for the half-maximal inhibitory concentration (IC50) on H-PGDS [3] and at MBP-H-PGDS fusion enzyme were 0.001 to 0.01 µM and 0.308 ± 0.011 µM, respectively.

Turning to `c1ccc(-c2ncc(-c3cc[nH]n3)s2)cc1`, on MBP-H-PGDS fusion enzyme, the half-maximal inhibitory concentration (IC50) turned out to be 0.438 ± 0.265 µM. `O=C(Nc1ccc(N2CCOCC2)cc1)c1cnc(Oc2ccccc2)nc1`: the IC50 at H-PGDS [2] was 0.19 µM; at MBP-H-PGDS fusion enzyme, 0.038 ± 0.011 µM. Consider `c1ccc(C(OC2CCN(CCCc3nnn[nH]3)CC2)c2ccccc2)cc1`, for which the figures for the 50% inhibitory concentration (IC50) at H-PGDS [4] and on MBP-H-PGDS fusion enzyme were 6 µM and 15 µM, respectively. For the same compound, in assay [5], the “PGD2 levels in guinea pig lung tissues” value is given as “reduce PGD2 levels”. Moreover, the “IC50 against H-PGDS in known in vitro assays” value at H-PGDS [1] is on record as “micromolar”. Regarding `O=C(NCCNc1ccccc1)c1cnc(-c2ccccc2)nc1` [2-phenyl-N-(2-(phenylamino)ethyl)pyrimidine-5-carboxamide], at MBP-H-PGDS fusion enzyme, the IC50 turned out to be 0.375 ± 0.18 µM. On the same count and under the same terms, with `O=C(NC1CCN(Cc2ccccc2)CC1)c1ccc(-c2cccc(F)c2)nc1` the figure was 0.03 µM.

One may read the IC50 as the concentration that gives 50% inhibition.
